The target of assay [1] is T1, human kinase Mps-1 (Homo sapiens (Human), UniProt P33981). The assay can be described thus: biochemical.
The target in assay [2] is T1, human kinase Mps-1. Particulars: read-out: Mps-1 IC50; N-terminally GST-tagged human full length recombinant Mps-1; 10 μM ATP; 1 μM biotinylated peptide substrate; 60 min at 22° C.

SMILES strings stand for the structures. Like-named read-outs stand apart in the source and are kept apart here.

T1 sequence (P33981 whole entry): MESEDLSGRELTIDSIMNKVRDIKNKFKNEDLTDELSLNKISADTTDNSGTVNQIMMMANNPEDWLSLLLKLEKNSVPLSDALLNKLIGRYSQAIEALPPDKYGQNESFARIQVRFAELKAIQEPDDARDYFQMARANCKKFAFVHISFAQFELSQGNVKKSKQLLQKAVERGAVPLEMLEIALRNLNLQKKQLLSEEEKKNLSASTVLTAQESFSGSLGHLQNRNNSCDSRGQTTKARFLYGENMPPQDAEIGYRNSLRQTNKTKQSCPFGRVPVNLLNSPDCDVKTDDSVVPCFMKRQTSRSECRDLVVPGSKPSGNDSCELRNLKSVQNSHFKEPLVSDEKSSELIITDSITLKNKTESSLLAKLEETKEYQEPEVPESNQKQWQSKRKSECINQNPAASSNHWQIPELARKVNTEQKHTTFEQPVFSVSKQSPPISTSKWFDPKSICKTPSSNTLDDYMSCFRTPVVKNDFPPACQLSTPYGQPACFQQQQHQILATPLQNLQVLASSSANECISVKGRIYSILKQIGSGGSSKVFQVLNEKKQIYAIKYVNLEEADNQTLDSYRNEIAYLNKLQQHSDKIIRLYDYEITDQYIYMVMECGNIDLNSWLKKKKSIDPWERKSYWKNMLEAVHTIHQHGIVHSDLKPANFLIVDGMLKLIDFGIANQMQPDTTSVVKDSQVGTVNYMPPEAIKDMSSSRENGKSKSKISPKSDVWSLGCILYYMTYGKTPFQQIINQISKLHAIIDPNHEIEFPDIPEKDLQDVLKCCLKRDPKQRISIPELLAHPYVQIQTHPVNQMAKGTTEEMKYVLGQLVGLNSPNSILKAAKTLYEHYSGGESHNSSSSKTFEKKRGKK

At human kinase Mps-1 [1], `Cc1cc(-c2cnc3c(NCCC(F)(F)F)nc(C#CCO)cn23)ccc1C(=O)NC1C[C@@H]1F` (stereo in doubt) [Example 76, N-[rel(1S,2S)-2-fluorocyclopropyl]-4-{6-(3-hydroxyprop-1-yn-1-yl)-8-[(3,3,3-trifluoropropyl)amino]imidazo[1,2-a]pyrazin-3-yl}-2-methylbenzamide] gave an IC50 of 43 nM.

In turn, `NCCCNc1nc(C#CCO)cn2c(-c3ccc(-c4cnc(C5CC5)[nH]4)cc3)cnc12` [Example 60, 3-{8-[(3-Aminopropyl)amino]-3-[4-(2-cyclopropyl-1H-imidazol-5-yl)phenyl]imidazo[1,2-a]pyrazin-6-yl}prop-2-yn-1-ol] registered an IC50 at human kinase Mps-1 [1] of 230 nM.

As for `Cc1cc(-c2cnc3c(NCCC(F)(F)F)nc(C#CCO)cn23)ccc1C(=O)NC1(C#N)CC1` [Example 74, N-(1-cyanocyclopropyl)-4-{6-(3-hydroxyprop-1-yn-1-yl)-8-[(3,3,3-trifluoropropyl)amino]imidazo[1,2-a]pyrazin-3-yl}-2-methylbenzamide], the IC50 on human kinase Mps-1 [2] amounted to 98 nM.

Take `COC1(NC(=O)c2ccc(-c3cnc4c(NCCC(F)(F)F)nc(C#CCO)cn34)cc2C)CC1` [Example 75, 4-{6-(3-hydroxyprop-1-yn-1-yl)-8-[(3,3,3-trifluoropropyl)amino]imidazo[1,2-a]pyrazin-3-yl}-N-(1-methoxycyclopropyl)-2-methylbenzamide]: the IC50 at human kinase Mps-1 [2] stood at 310 nM.

These data come from patent publication US9199999B2, “Substituted imidazopyrazines” (Bayer Intellectual Property GmbH, priority 2010, dated 2015).
